# In US11554091B2, “Composition for enhancing skin elasticity or improving skin wrinkles comprising heptahydroxyflavan as an effective ingredient” (AMOREPACIFIC CORPORATION, priority 2019, dated 2023):
# Tested on: MMP-1
# Test: MMP-1 expression level by MMP-1 ELISA kit, UV-stimulated HaCaT cell culture and human fibroblast culture
# Type: cell-based
# Details: for MMP-1 production: Control = 100, UV = 260.4; for effect of inhibiting MMP-1 as compared to catechin or epicatechin: Table 1 and FIG. 3
# Protocol: Then, after replacing the medium with an FBS-free DMEM medium to starve the cells, they were treated with UV on the next day.
# Then, the cells were starved by replacing the medium with an FBM medium with no supplement. Then, the UV-stimulated HaCaT cell culture and the human fibroblast culture were treated with a total of 6 samples prepared by dissolving the (2R,3S)-heptahydroxyflavan and (2R,3R)-heptahydroxyflavan obtained in Example 1 in 5% DMSO to concentrations of 5 μg/mL (=about 15.5 μM), 10 μg/mL (=about 31.0 μM) and 20 μg/mL (=about 62.1 μM), respectively. As comparative examples, the cultures were treated with a total of 6 samples prepared by dissolving catechin and epicatechin in 5% DMSO at concentrations of 25 μM, 50 μM and 100 μM, respectively.
# After the treatment with the samples, the expression level of MMP-1 was measured using the MMP-1 ELISA kit (R&D Systems). Separately from this, positive control groups were treated with 10 μM EGCG or 10 μM retinoic acid instead of heptahydroxyflavan in the same manner as described above.
Compound,MMP-1 production (5 μg/mL),MMP-1 production (10 μg/mL),MMP-1 production (20 μg/mL),effect of inhibiting MMP-1 as compared to catechin or epicatechin,MMP-1 production (10 μM),MMP-1 production (25 μM),MMP-1 production (50 μM),MMP-1 production (100 μM)
Oc1ccc([C@H]2Oc3c(O)c(O)c(O)c(O)c3C[C@@H]2O)cc1O [APNP-054],282.1,267.7,183.2,remarkably superior effect of inhibiting MMP-1,,,,
Oc1ccc([C@H]2Oc3c(O)c(O)c(O)c(O)c3C[C@H]2O)cc1O [APNP-055],281.0,286.6,160.6,remarkably superior effect of inhibiting MMP-1,,,,
O=C(O[C@@H]1Cc2c(O)cc(O)cc2O[C@@H]1c1cc(O)c(O)c(O)c1)c1cc(O)c(O)c(O)c1 [EGCG],,,,,115.4,,,
"Oc1cc(O)c2c(c1)O[C@H](c1ccc(O)c(O)c1)[C@H](O)C2 [Epicatechin, epicatechin]",,,,,,294.8,289.1,196.2
"CC1=C(/C=C/C(C)=C/C=C/C(C)=C/C(=O)O)C(C)(C)CCC1 [RA, retinoic acid]",,,,,104.5,,,
catechin,,,,,,308.2,287.4,257.3
